The text below walks through data of US20130252935A1, “Monobactams” (PFIZER INC., priority 2010, published 2013).

What all share (assay type): cell-based
For test [1], the system named is Pseudomonas aeruginosa UC-12120. In words: minimum inhibitory concentration (MIC) testing according to CLSI guidelines, Pseudomonas aeruginosa. The settings on record: Pseudomonas aeruginosa, UC12120; UC-12120, wild-type, labeled as 1091-05; overnight incubation; lower of duplicate values; read-out: AB-MBT: Pseudomonas aeruginosa 1091-05: MIC (MstRcn). The protocol:
(§1) In order to assess the compounds biological activity, the in vitro anti-bacterial activity of selected compounds described in the Examples 1-69 was evaluated by minimum inhibitory concentration (MIC) testing according to Clinical and Laboratory Standards Institute (CLSI, formerly NCCLS) guidelines. See: Clinical and Laboratory Standards Institute. Methods for Dilution Antimicrobial Susceptibility Tests for Bacteria that Grow Aerobically; Approved Standard-Eighth Edition. CLSI document M7-A8 [ISBN 1-56238-689-1]. Clinical and Laboratory Standards Institute, 940 West Valley Road, Suite 1400, Wayne, Pa. 19087-1898 USA, 2006; also Clinical and Laboratory Standards Institute. Performance Standards for Antimicrobial Susceptibility Testing; Twentieth Informational Supplement. CLSI document M100-S20 [ISBN1-56238-716-2]. Clinical and Laboratory Standards Institute.
(§2) The MIC determination is a standard laboratory method for evaluating the antibacterial activity of a compound. The MIC represents the lowest drug concentration that inhibits visible growth of bacteria following overnight incubation. […] Typically, the drug concentration range is broken down into 2-fold increments (e.g. 0.06 μg/mL, 0.12 μg/mL. 0.25 μg/mL, 0.50 μg/mL, 1.0 μg/mL, etc.) and the various drug concentrations are all individually incubated overnight with approximately the same number of bacteria. The MIC is then determined by visually inspecting the drug effect at each concentration, and identifying the lowest drug concentration that has inhibited bacterial growth as compared to the drug free control. Typically, bacteria continue to grow at drug concentrations lower than the MIC and don't grow at concentrations at and above the MIC.
(§3) The MIC values described in Table 1 below were derived from assays wherein each test compound was evaluated in duplicate. In cases where the duplicate values varied by 0-2-fold, the lower of the two values was reported below. Generally speaking, if the duplicate values varied by more than 2-fold, the assay was considered non-valid and was repeated until the variation between duplicate runs was ≦2-fold. In line with the CLSI guidelines referred to above, both control organisms and reference compounds were utilized in each MIC assay to provide proper quality control. MIC values generated with these control organisms and reference compounds were required to fall within a defined range for the assay to be considered valid and be included herein. Those skilled in the art will recognize that MIC values can and do vary from experiment to experiment. Generally speaking, it should be recognized that MIC values often vary +/−2-fold from experiment to experiment. While a single MIC is reported for each compound and each microorganism, the reader should not conclude that each compound was only tested once. Several of the compounds were subjected to multiple tests. The data reported in Table 1 is reflective of the compounds relative activity and different MICs may have been generated on these occasions in light with the guidelines described above.
(§4) The following bacterial strains were used in these MIC determinations:
1) Pseudomonas aeruginosa UC-12120: Wild-type, labeled as 1091-05;

In test [2] the test system is Klebsiella pneumoniae 1000-02. In words: minimum inhibitory concentration (MIC) testing according to CLSI guidelines, Klebsiella pneumoniae. The settings on record: Klebsiella pneumoniae; ciprofloxacin-resistant, ESBL-expressing clinical isolate 1000-02; overnight incubation; lower of duplicate values; read-out: AB-MBT: Klebsiella pneumoniae 1000-02: MIC (MstRcnt). How it is done:
as §1, §2, §3, §4
2) Klebsiella pneumoniae: Ciprofloxacin-resistant isolate, expresses extended-spectrum beta-lactamases (ESBL), clinical isolate, labeled as 1000-02;

The subject of test [3] is Acinetobacter baumannii/haemolyticus AB-3167. In words: minimum inhibitory concentration (MIC) testing according to CLSI guidelines, Acinetobacter. To be noted: Acinetobacter baumannii; multidrug-resistant clinical isolate AB-3167; overnight incubation; lower of duplicate values; read-out: AB-MBT: Acinetobacter baumanii AB-3167: MIC (MstRcnt). The protocol:
as §1, §2, §3, §4
3) Acinetobacter baumannii/haemolyticus: Multidrug-resistant clinical isolate, labeled as AB-3167.

In brackets after ≈: the same amount, converted by molar mass.

`CC(C)(O/N=C(\C(=O)N[C@@H]1C(=O)N(S(=O)(=O)O)[C@@H]1Cn1cc(COCc2cc(=O)c(O)cn2O)nn1)c1csc(N)n1)C(=O)O` [Example 1, 2-({[(1Z)-1-(2-amino-1,3-thiazol-4-yl)-2-({(2R,3S)-2-[(4-{[(1,5-dihydroxy-4-oxo-1,4-dihydropyridin-2-yl)methoxy]methyl}-1H-1,2,3-triazol-1-yl)methyl]-4-oxo-1-sulfoazetidin-3-yl}amino)-2-oxoethylidene]amino}oxy)-2-methylpropanoic acid]: the MIC worked out at 0.25 µg/mL (≈ 0.372 µM) in test [1], 0.25 µg/mL (≈ 0.372 µM) in test [2] and 0.5 µg/mL (≈ 0.744 µM) in test [3].
As to `CC(C)(O/N=C(\C(=O)N[C@@H]1C(=O)N(S(=O)(=O)O)[C@@H]1Cn1cc(-c2cc(=O)c(O)c[nH]2)nn1)c1csc(N)n1)C(=O)O` [Example 2, 2-({[(1Z)-1-(2-amino-1,3-thiazol-4-yl)-2-{[(2R,3S)-2-{[4-(5-hydroxy-4-oxo-1,4-dihydropyridin-2-yl)-1H-1,2,3-triazol-1-yl]methyl}-4-oxo-1-sulfoazetidin-3-yl]amino}-2-oxoethylidene]amino}oxy)-2-methylpropanoic acid], the MIC stood at 2 µg/mL (≈ 3.27 µM) in test [1], 8 µg/mL (≈ 13.1 µM) in test [2] and 8 µg/mL (≈ 13.1 µM) in test [3].
In the case of `CC(C)(O/N=C(\C(=O)N[C@@H]1C(=O)N(S(=O)(=O)O)[C@@H]1Cn1cc(-c2cc(=O)c(O)cn2O)nn1)c1csc(N)n1)C(=O)O` [Example 3, 2-({[(1Z)-1-(2-amino-1,3-thiazol-4-yl)-2-{[(2R,3S)-2-{[4-(1,5-dihydroxy-4-oxo-1,4-dihydropyridin-2-yl)-1H-1,2,3-triazol-1-yl]methyl}-4-oxo-1-sulfoazetidin-3-yl]amino}-2-oxoethylidene]amino}oxy)-2-methylpropanoic acid], the MIC in test [1] was determined as 0.125 µg/mL (≈ 0.199 µM); in test [2] it was 0.25 µg/mL (≈ 0.398 µM); in test [3], 0.5 µg/mL (≈ 0.797 µM).
For `CC(C)(O/N=C(\C(=O)N[C@@H]1C(=O)N(S(=O)(=O)O)[C@@H]1CNC(=O)NCc1cc(=O)c(O)cn1O)c1csc(N)n1)C(=O)O` [Example 4, 2-({[(1Z)-1-(2-amino-1,3-thiazol-4-yl)-2-({(2R,3S)-2-[({[(1,5-dihydroxy-4-oxo-1,4-dihydropyridin-2-yl)methyl]carbamoyl}amino)methyl]-4-oxo-1-sulfoazetidin-3-yl}amino)-2-oxoethylidene]amino}oxy)-2-methylpropanoic acid], in that order: 0.125 µg/mL (≈ 0.198 µM), 0.125 µg/mL (≈ 0.198 µM) and 0.5 µg/mL (≈ 0.79 µM).
For `CC(C)(O/N=C(\C(=O)N[C@@H]1C(=O)N(S(=O)(=O)[O-])[C@@H]1CNC(=O)OCc1cc(=O)c(O)cn1O)c1csc(N)n1)C(=O)[O-].[Na+].[Na+]` [Example 5, disodium 2-({[(1Z)-1-(2-amino-1,3-thiazol-4-yl)-2-({(2R,3S)-2-[({[(1,5-dihydroxy-4-oxo-1,4-dihydropyridin-2-yl)methoxy]carbonyl}amino)methyl]-4-oxo-1-sulfonatoazetidin-3-yl}amino)-2-oxoethylidene]amino}oxy)-2-methylpropanoate], in that order: 0.125 µg/mL, 4 µg/mL and 1 µg/mL.
As for `CC(C)(O/N=C(\C(=O)N[C@@H]1C(=O)N(S(=O)(=O)O)[C@@H]1COC(=O)CNC(=O)c1cc(O)c(O)cn1)c1csc(N)n1)C(=O)O` [Example 6, 2-({[(1Z)-1-(2-amino-1,3-thiazol-4-yl)-2-({(2S,3S)-2-[({N-[(4,5-dihydroxypyridin-2-yl)carbonyl]glycyl}oxy)methyl]-4-oxo-1-sulfoazetidin-3-yl}amino)-2-oxoethylidene]amino}oxy)-2-methylpropanoic acid], the MIC in test [2] turned out to be 8 µg/mL (≈ 12.4 µM); in test [3], 1 µg/mL (≈ 1.55 µM).
Turning to `CC(C)(O/N=C(\C(=O)N[C@@H]1C(=O)N(S(=O)(=O)O)[C@@H]1COC(=O)CNC(=O)c1cc(=O)c(O)cn1O)c1csc(N)n1)C(=O)O` [Example 7, 2-({[(1Z)-1-(2-amino-1,3-thiazol-4-yl)-2-({(2S,3S)-2-[({N-[(1,5-dihydroxy-4-oxo-1,4-dihydropyridin-2-yl)carbonyl]glycyl}oxy)methyl]-4-oxo-1-sulfoazetidin-3-yl}amino)-2-oxoethylidene]amino}oxy)-2-methylpropanoic acid], the minimal inhibitory concentration (MIC) was 0.125 µg/mL (≈ 0.189 µM) in test [1], 8 µg/mL (≈ 12.1 µM) in test [2] and 0.5 µg/mL (≈ 0.756 µM) in test [3].
For `CC(C)(O/N=C(\C(=O)N[C@@H]1C(=O)N(S(=O)(=O)O)[C@@H]1CNC(=O)C1CN(C(=O)c2cc(=O)c(O)c[nH]2)C1)c1csc(N)n1)C(=O)O` [Example 8, 2-({[(1Z)-1-(2-amino-1,3-thiazol-4-yl)-2-{[(2R,3S)-2-{[({1-[(5-hydroxy-4-oxo-1,4-dihydropyridin-2-yl)carbonyl]azetidin-3-yl}carbonyl)amino]methyl}-4-oxo-1-sulfoazetidin-3-yl]amino}-2-oxoethylidene]amino}oxy)-2-methylpropanoic acid], in that order: 1 µg/mL (≈ 1.49 µM), 4 µg/mL (≈ 5.96 µM) and 1 µg/mL (≈ 1.49 µM).
For `CC(C)(O/N=C(\C(=O)N[C@@H]1C(=O)N(S(=O)(=O)O)[C@@H]1CNC(=O)C1CN(Cc2cc(=O)c(O)c[nH]2)C1)c1csc(N)n1)C(=O)O` [Example 9, 2-({[(1Z)-1-(2-amino-1,3-thiazol-4-yl)-2-{[(2R,3S)-2-{[({1-[(5-hydroxy-4-oxo-1,4-dihydropyridin-2-yl)methyl]azetidin-3-yl}carbonyl)amino]methyl}-4-oxo-1-sulfoazetidin-3-yl]amino}-2-oxoethylidene]amino}oxy)-2-methylpropanoic acid], in that order: 4 µg/mL (≈ 6.09 µM), 4 µg/mL (≈ 6.09 µM) and 2 µg/mL (≈ 3.05 µM).
For `CC(C)(O/N=C(\C(=O)N[C@@H]1C(=O)N(S(=O)(=O)O)[C@@H]1CNC(=O)c1cc(=O)c(O)c[nH]1)c1csc(N)n1)C(=O)O` [Example 10, 2-({[(1Z)-1-(2-amino-1,3-thiazol-4-yl)-2-{[(2R,3S)-2-({[(5-hydroxy-4-oxo-1,4-dihydropyridin-2-yl)carbonyl]amino}methyl)-4-oxo-1-sulfoazetidin-3-yl]amino}-2-oxoethylidene]amino}oxy)-2-methylpropanoic acid], in that order: 0.125 µg/mL (≈ 0.213 µM), 0.5 µg/mL (≈ 0.851 µM) and 0.25 µg/mL (≈ 0.425 µM).
Consider `CC(C)(O/N=C(\C(=O)N[C@@H]1C(=O)N(S(=O)(=O)[O-])[C@@H]1CNC(=O)c1cc(=O)c(O)cn1O)c1csc(N)n1)C(=O)[O-].[Na+].[Na+]` [Example 11, 2-({[(1Z)-1-(2-amino-1,3-thiazol-4-yl)-2-{[(2R,3S)-2-({[(1,5-dihydroxy-4-oxo-1,4-dihydropyridin-2-yl)carbonyl]amino}methyl)-4-oxo-1-sulfoazetidin-3-yl]amino}-2-oxoethylidene]amino}oxy)-2-methylpropanoic acid, disodium salt], for which the results for the MIC in test [1], in test [2] and in test [3] were 0.5 µg/mL, 0.06 µg/mL and 1 µg/mL, respectively.
In the same order, the values of `CC(C)(O/N=C(\C(=O)N[C@@H]1C(=O)N(S(=O)(=O)O)[C@@H]1COC(=O)c1cc(-c2cc(=O)c(O)c[nH]2)no1)c1csc(N)n1)C(=O)O` [Example 12, 2-({[(1Z)-1-(2-amino-1,3-thiazol-4-yl)-2-({(2S,3S)-2-[({[3-(5-hydroxy-4-oxo-1,4-dihydropyridin-2-yl)isoxazol-5-yl]carbonyl}oxy)methyl]-4-oxo-1-sulfoazetidin-3-yl}amino)-2-oxoethylidene]amino}oxy)-2-methylpropanoic acid] are 4 µg/mL (≈ 6.1 µM), 0.25 µg/mL (≈ 0.381 µM) and 16 µg/mL (≈ 24.4 µM).
